Key:
Histamine H2 receptor = Histamine H2 receptor (Homo sapiens, UniProt P25021); assay type: functional, cell-based
[1] = biological target: 5-hydroxytryptamine receptor 2B (Homo sapiens, UniProt P41595); assay type: functional, cell-based
[2] = biological target: Sodium-dependent serotonin transporter (Homo sapiens, UniProt P31645)
[3] = biological target: T1, 5-hydroxytryptamine receptor 1A (Homo sapiens, UniProt P08908); assay type: functional, cell-based
T1 sequence (P08908 whole entry): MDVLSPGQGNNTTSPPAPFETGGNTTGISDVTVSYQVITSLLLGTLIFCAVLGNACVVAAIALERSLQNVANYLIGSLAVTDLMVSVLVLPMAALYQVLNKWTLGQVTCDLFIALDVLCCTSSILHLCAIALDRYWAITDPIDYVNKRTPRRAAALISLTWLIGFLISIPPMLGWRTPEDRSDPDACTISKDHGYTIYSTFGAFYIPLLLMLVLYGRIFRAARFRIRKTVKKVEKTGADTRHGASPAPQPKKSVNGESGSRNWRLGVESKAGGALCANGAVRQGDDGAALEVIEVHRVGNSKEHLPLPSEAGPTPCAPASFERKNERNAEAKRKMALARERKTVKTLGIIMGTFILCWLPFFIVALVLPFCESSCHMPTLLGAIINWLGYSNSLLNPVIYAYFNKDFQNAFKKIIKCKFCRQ

[4] = biological target: T2, Muscarinic acetylcholine receptor M2 (Homo sapiens, UniProt P08172); assay type: functional, cell-based
T2 sequence (P08172 whole entry): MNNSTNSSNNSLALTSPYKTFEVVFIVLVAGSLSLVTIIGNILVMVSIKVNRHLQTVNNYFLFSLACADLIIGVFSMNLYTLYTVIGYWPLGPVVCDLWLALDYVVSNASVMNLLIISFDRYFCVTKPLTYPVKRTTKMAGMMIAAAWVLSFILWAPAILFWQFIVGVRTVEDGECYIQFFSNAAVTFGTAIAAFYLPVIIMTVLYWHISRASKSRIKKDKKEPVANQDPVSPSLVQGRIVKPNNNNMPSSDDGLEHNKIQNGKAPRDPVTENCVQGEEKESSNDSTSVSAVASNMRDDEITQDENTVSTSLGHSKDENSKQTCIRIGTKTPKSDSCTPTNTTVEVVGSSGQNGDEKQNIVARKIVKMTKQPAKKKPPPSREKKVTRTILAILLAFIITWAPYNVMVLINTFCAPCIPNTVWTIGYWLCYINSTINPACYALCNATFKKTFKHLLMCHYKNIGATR

Androgen receptor = biological target: T3, Androgen receptor (Homo sapiens, UniProt P10275)
T3 sequence (P10275 whole entry): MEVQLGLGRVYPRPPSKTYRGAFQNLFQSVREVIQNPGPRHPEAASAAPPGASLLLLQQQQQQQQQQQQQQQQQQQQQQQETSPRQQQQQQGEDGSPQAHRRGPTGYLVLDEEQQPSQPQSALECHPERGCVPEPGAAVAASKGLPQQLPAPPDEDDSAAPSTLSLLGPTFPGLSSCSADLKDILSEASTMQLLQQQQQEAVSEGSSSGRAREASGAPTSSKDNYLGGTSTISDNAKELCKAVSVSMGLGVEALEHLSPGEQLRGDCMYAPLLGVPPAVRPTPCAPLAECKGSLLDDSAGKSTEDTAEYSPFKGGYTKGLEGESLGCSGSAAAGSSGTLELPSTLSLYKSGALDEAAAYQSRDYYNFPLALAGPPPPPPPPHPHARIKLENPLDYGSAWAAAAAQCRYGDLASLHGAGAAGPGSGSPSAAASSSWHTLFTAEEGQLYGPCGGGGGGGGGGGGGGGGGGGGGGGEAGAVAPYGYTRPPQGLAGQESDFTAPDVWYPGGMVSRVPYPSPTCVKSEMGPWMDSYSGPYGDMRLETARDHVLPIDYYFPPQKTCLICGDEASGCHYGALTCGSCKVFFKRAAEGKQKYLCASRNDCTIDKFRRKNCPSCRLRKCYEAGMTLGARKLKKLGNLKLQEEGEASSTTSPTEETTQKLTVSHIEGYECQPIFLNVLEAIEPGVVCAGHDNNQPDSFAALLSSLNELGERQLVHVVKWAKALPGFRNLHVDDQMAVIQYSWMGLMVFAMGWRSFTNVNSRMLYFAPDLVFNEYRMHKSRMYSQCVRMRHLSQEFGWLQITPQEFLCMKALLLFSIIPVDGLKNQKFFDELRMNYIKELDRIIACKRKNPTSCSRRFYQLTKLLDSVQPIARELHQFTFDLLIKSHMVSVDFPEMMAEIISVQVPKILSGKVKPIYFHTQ
Also: assay procedure not described here.

Chain of Sodium-dependent serotonin transporter (P31645 whole entry): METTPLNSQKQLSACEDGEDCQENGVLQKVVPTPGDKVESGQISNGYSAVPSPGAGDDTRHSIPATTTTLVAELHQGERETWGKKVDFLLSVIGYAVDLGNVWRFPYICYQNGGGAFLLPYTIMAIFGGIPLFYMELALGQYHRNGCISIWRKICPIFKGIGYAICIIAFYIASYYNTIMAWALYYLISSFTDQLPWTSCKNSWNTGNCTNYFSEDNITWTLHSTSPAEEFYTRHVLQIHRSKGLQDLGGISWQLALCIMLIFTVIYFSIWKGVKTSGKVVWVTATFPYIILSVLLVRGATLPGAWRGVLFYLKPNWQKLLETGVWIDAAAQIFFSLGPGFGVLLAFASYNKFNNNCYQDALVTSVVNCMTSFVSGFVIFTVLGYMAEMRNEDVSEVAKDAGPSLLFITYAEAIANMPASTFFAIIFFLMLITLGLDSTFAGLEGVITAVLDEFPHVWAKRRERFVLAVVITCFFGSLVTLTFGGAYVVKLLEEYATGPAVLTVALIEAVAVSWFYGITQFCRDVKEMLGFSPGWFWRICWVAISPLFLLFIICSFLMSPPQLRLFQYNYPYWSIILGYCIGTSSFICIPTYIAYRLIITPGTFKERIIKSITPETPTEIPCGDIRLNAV
Chain of 5-hydroxytryptamine receptor 2B (P41595 whole entry): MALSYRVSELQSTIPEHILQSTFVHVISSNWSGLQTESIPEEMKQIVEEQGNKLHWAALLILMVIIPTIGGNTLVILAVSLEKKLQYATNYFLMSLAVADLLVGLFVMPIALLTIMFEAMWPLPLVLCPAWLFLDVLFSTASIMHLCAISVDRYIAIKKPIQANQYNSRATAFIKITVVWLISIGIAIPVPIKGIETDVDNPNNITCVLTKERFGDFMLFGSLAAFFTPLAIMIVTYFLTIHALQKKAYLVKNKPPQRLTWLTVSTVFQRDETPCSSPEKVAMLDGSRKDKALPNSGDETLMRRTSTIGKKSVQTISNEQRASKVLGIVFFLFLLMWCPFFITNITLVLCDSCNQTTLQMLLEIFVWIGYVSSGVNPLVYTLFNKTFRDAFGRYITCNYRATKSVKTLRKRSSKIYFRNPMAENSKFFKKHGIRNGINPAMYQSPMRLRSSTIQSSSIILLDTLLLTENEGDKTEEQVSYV
Chain of Histamine H2 receptor (P25021 whole entry): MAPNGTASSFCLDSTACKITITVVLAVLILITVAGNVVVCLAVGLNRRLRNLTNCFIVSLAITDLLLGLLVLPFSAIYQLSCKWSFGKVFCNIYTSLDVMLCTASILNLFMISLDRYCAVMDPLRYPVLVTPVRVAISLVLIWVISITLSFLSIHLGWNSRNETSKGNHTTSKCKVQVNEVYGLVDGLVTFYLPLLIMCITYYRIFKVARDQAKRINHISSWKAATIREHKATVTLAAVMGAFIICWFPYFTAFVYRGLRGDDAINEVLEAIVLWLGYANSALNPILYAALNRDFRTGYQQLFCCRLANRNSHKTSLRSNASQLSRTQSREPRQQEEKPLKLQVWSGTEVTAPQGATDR

Row | SMILES | AC50 (Histamine H2 receptor) [µM] | AC50 [1] [µM] | AC50 [2] [µM] | AC50 [3] [µM] | AC50 [4] [µM] | AC50 (Androgen receptor) [µM]
1 | C[N+](C)(C)CCOP(=O)(O)OP(=O)([O-])OC[C@H]1O[C@@H](n2ccc(N)nc2=O)[C@H](O)[C@@H]1O [CITICOLINE] | > 30 | > 30 | > 30 | > 30 | > 30 | > 30
2 | C#C[C@]1(O)C=C[C@H]2[C@@H]3CCC4=CC(=O)CC[C@@H]4[C@H]3CC[C@@]21CC [GESTODENE] | – | – | 4.59 | – | – | 0.003
3 | CN(C)c1ccc(O)c2c1C[C@H]1C[C@H]3[C@H](N(C)C)C(O)=C(C(N)=O)C(=O)[C@@]3(O)C(O)=C1C2=O [MINOCYCLINE] | – | – | > 30 | – | – | > 30
4 | Nc1cccc2c1C(=O)N(C1CCC(=O)NC1=O)C2=O (centres undefined) [POMALIDOMIDE] | – | – | > 30 | – | – | > 30
5 | CC(C)NC(=N)NC(=N)Nc1ccc(Cl)c(Cl)c1 [CHLORPROGUANIL] | > 30 | > 30 | 5.81 | > 30 | – | > 30
6 | CC[C@@H]1C[C@]1(NC(=O)[C@@H]1C[C@@H]2CN1C(=O)[C@H](C(C)(C)C)NC(=O)OCC(C)(C)CCCCc1cccc3c1CN(C3)C(=O)O2)C(=O)NS(=O)(=O)C1CC1 | – | – | > 30 | – | – | > 30

— ChEMBL document CHEMBL5291721, “A preclinical secondary pharmacology resource illuminates target-adverse drug reaction associations of marketed drugs” (Nat Commun, 2023)
